Read-outs that look alike come from different tables or passages of the source. Some results are limits rather than exact numbers.

The source of these data is patent publication US11286268B1, “EIF4E-inhibiting compounds and methods” (EFFECTOR THERAPEUTICS, INC., priority 2019, dated 2022).

In the test the target is recombinant eIF4E (Homo sapiens (Human), UniProt P06730). Nature of the test: Fluorescence polarization competition assay for eIF4E binding potency. The essentials:
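IC50 values reflect 50% displacement of 20 nM EDA-m7GDP-ATTO-550 from 75 nM eIF4E, measured by fluorescence polarization after 30 min at room temperature. Buffer: 20 mM Tris pH 7.5, 100 mM NaCl, 1 mM DTT, 0.02% Tween-20; 1% DMSO.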

Setting [1] is: fluorescence polarization competition, 75 nM recombinant eIF4E, 20 nM EDA-m7GDP-ATTO-550, IC50 class, read-out: elF4E FP.
Setting [2] is: inhibition of eIF4E/EDA-m7GDP-ATTO-550 binding by 50%, Table 4B calculated values, read-out: IC50.
Setting [3] is: inhibition of eIF4E/EDA-m7GDP-ATTO-550 binding, calculated IC50 values, Table 4B, read-out: IC50.

Sequence of recombinant eIF4E (P06730 whole entry): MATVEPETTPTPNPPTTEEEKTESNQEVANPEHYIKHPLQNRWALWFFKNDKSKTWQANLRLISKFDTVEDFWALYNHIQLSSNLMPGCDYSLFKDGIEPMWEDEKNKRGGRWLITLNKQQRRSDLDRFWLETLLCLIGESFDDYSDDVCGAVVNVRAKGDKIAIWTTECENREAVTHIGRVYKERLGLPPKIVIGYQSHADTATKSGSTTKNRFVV

On to `Cc1nc2cncc(C#N)c2c(=O)n1C/C=C/c1ccc(Cl)cc1-c1cccc(C(=O)O)c1` [compound 44], for which the IC50 reads like this: under setting [1], 50 to 1000 nM; under setting [2], 73.1 nM.
Take `Cc1nc2c(F)cc(C(F)F)c(C#N)c2c(=O)n1CCOc1cc(F)c(Cl)cc1-c1ccnc2c(C(=O)O)csc12` [compound 504]: the IC50 under setting [1] was less than 50 nM and the IC50 under setting [2] is 22.9 nM.
For `Cc1cc(-c2cc(Cl)ccc2OCCn2c(C)nc3c(C)nc(-c4cnc(N)cc4F)c(C#N)c3c2=O)c2scc(C(=O)O)c2n1` [compound 874], the IC50 under setting [1] is less than 50 nM and the IC50 under setting [2] is 41.5 nM.
For the compound `C=C(c1ncc2nc(C)n(CCOc3ccc(Cl)cc3-c3cc(C)nc4c(C(=O)O)csc34)c(=O)c2c1C#N)C(F)(F)F` [compound 989], the IC50 is less than 50 nM under setting [1] and 19.8 nM under setting [2].
Consider `Cc1nc2cnc(N3CCC4(CC3)CN(CC(F)F)C4)c(C#N)c2c(=O)n1CC#Cc1ccc(Cl)cc1-c1ccnc2c(C(=O)NS(=O)(=O)c3cccnc3)csc12` [compound 1409], for which the IC50 under setting [3] is 10.8 nM.
`Cc1cc(-c2cc(Cl)ccc2OCCn2c(C)nc3cnc(N4CCN(C)CC4)c(C#N)c3c2=O)c2scc(C(=O)O)c2n1` [compound 1145]: the IC50 reads like this: under setting [1], less than 50 nM; under setting [2], 33.1 nM.
Turning to `Cc1nc2ccc(Cl)c(C#N)c2c(=O)n1CCOc1ccc(Cl)cc1-c1cccc(C(=O)O)c1` [compound 141], the IC50 was less than 50 nM under setting [1] and 44.2 nM under setting [2].
The matching figures for `Cc1nc2cc(CN(C)C)c(OC(F)F)c(C#N)c2c(=O)n1CCOc1ccc(Cl)cc1-c1cccc(C(=O)O)c1` [compound 806]: less than 50 nM and 3.58 nM.
For the compound `Cc1nc2cc(C(F)(F)F)c(N3CCN(C)CC3)c(C#N)c2c(=O)n1CCOc1ccc(Cl)cc1-c1ccnc2c(Cl)csc12` [compound 1247], the IC50 runs as follows: under setting [1], less than 50 nM; under setting [3], 35.5 nM.
For the compound `Cc1cc(-c2cc(Cl)ccc2OCCn2c(C)nc3cc(C(F)(F)F)c(C4=CCN(C)CC4)c(C#N)c3c2=O)c2scc(C(=O)O)c2n1` [compound 373], the IC50 by setting is: under setting [1], less than 50 nM; under setting [2], 6.43 nM.
In the case of `Cc1cc(-c2cc(Cl)ccc2OCCn2c(C)nc3cc(Cl)c(-c4cccnc4C)c(C#N)c3c2=O)c2scc(C(=O)O)c2n1` [compound 395], the IC50 runs as follows: under setting [1], less than 50 nM; under setting [2], 9.68 nM.
Regarding `Cc1nc2cc(C(F)(F)F)cc(C#N)c2c(=O)n1CCOc1ccc(Cl)cc1-c1ccnc(-c2nnn[nH]2)c1` [compound 662], the IC50 by setting is: under setting [1], 50 to 1000 nM; under setting [2], 144 nM.
For the compound `Cc1nc2cnc(N3CC4(C3)CN(C3CCCC3)C4)c(C#N)c2c(=O)n1CCOc1ccc(Cl)cc1-c1ccnc2c(C(=O)O)csc12` [compound 1369], the IC50 under setting [3] is 13.2 nM.
`Cc1nc2cnc(N(C)C3CCN(CC(F)(F)F)CC3)c(C#N)c2c(=O)n1CCOc1ccc(Cl)cc1-c1ccnc2c(C(=O)O)csc12` [compound 865]: the IC50 under setting [1] was less than 50 nM and the IC50 under setting [2] was 28.4 nM.
`CCc1cc(-c2cc(Cl)ccc2OCCn2c(C)nc3cnc(C4CC4)c(C#N)c3c2=O)c2scc(C(=O)O)c2n1` [compound 793]: the IC50 runs as follows: under setting [1], less than 50 nM; under setting [2], 4.81 nM.
Take `Cc1nc2cnc(N3CCN(CC4(F)CC4)CC3)c(C#N)c2c(=O)n1CC#Cc1ccc(Cl)cc1-c1ccnc2c(C(=O)O)csc12` [compound 1167]: the IC50 is, setting by setting: under setting [1], less than 50 nM; under setting [2], 17.3 nM.
`Cc1nc2ccc(S(=O)(=O)N3CCCCC3)c(C#N)c2c(=O)n1CCOc1ccc(Cl)cc1-c1ccnc2c(C(=O)O)csc12` [compound 251]: the IC50 under setting [1] was less than 50 nM.
On to `Cc1nc2cnc(N3CCN(C4CC4)CC3(C)C)c(C#N)c2c(=O)n1CC#Cc1ccc(Cl)cc1-c1ccnc2c(C(=O)O)csc12` [compound 1102], for which the IC50 runs as follows: under setting [1], less than 50 nM; under setting [2], 19.2 nM.
Turning to `Cc1nc2cc(C(F)(F)F)cc(C#N)c2c(=O)n1CCOc1ccc(Cl)cc1C1CCNC(C(=O)O)C1` (stereo not drawn) [compound 535], the IC50 reads like this: under setting [1], 50 to 1000 nM; under setting [2], 244 nM.
`Cc1nc2cnc(N3CC4(CN(CCOC(F)(F)F)C4)C3)c(C#N)c2c(=O)n1CC#Cc1ccc(Cl)cc1-c1ccnc2c(C(=O)O)csc12` [compound 894]: the IC50 was less than 50 nM under setting [1] and 21.6 nM under setting [2].
For the compound `Cc1nc2cc(OC(F)(F)F)c(Cl)c(C#N)c2c(=O)n1CCOc1ccc(Cl)cc1-c1ccnc2c(C(=O)O)csc12` [compound 542], the IC50 runs as follows: under setting [1], less than 50 nM; under setting [2], 20.2 nM.
With `Cc1cc(-c2cc(Cl)ccc2OCCn2c(C)nc3cc(C(F)(F)F)c(Oc4cccnc4)c(C#N)c3c2=O)c2scc(C(=O)O)c2n1` [compound 1035], the IC50 under setting [1] was less than 50 nM.
On to `Cc1nc2ccc(C(F)F)c(C#N)c2c(=O)n1CCOc1ccc(Cl)cc1-c1ccnc2c(C(=O)O)csc12` [compound 160], for which the IC50 under setting [1] was less than 50 nM and the IC50 under setting [2] is 8.83 nM.
For `Cc1cc(-c2cc(Cl)ccc2OCCn2c(C)nc3cc4c(c(C#N)c3c2=O)CCC4N(C)C)c2scc(C(=O)O)c2n1` (stereo not drawn) [compound 613], the IC50 is less than 50 nM under setting [1] and 7.89 nM under setting [2].
For `Cc1nc2cnc(N3CCN(C4CC4)CC3)c(C#N)c2c(=O)n1CCOc1ccc(Cl)cc1-c1ccnc2c(C(=O)O)csc12` [compound 1306], the IC50 under setting [3] is 38.9 nM.
Consider `Cc1nc2cc(C(F)(F)F)cc(C#N)c2c(=O)n1C/C=C/c1ccc(Cl)cc1-c1ccnc2c(C(=O)O)csc12` [compound 255], for which the IC50 under setting [1] fell in the range of 50 to 1000 nM and the IC50 under setting [2] is 78.5 nM.
On to `COc1cc(S(=O)(=O)NC(=O)c2csc3c(-c4cc(Cl)ccc4C#CCn4c(C)nc5cnc(N(C)C6CCN(CC(C)(F)F)CC6)c(C#N)c5c4=O)ccnc23)ccn1` [compound 1683], for which the IC50 under setting [3] is 18.3 nM.
Turning to `Cc1cc(-c2cc(Cl)ccc2OCCn2c(C)nc3cnc(C4CC4)c(C#N)c3c2=O)c2scc(C(=O)O)c2n1` [compound 418], the IC50 by setting is: under setting [1], less than 50 nM; under setting [2], 9.07 nM.
In the case of `O=C(O)c1cccc(-c2cc(Cl)ccc2OCCn2c(C(F)(F)F)nc3cnc(Cl)cc3c2=O)c1` [compound 2007], the IC50 under setting [3] was greater than 300000 nM.
As to `Cc1nc2c(S(C)(=O)=O)ccc(C#N)c2c(=O)n1CCOc1ccc(Cl)cc1-c1ccnc2c(C(=O)O)csc12` [compound 229], the IC50 is, setting by setting: under setting [1], less than 50 nM; under setting [2], 22.2 nM.
As for `Cc1nc2cnc(N(C)C3CCN(CC4CC(OC(F)F)C4)CC3)c(C#N)c2c(=O)n1CC#Cc1ccc(Cl)cc1-c1ccnc2c(C(=O)O)csc12` (stereo not drawn) [compound 1189], the IC50 is, setting by setting: under setting [1], less than 50 nM; under setting [3], 13.4 nM.
With `Cc1nc2cnc(N3CCC4(CC3)CN(CC(F)F)C4)c(C#N)c2c(=O)n1CC#Cc1ccc(Cl)cc1-c1ccnc2c(C(=O)NS(C)(=O)=O)csc12` [compound 1648], the IC50 under setting [3] was 13.3 nM.
Regarding `Cc1cc(-c2cc(Cl)ccc2OCCn2c(C)nc3c(C4CC4)ncc(Cl)c3c2=O)c2scc(C(=O)O)c2n1` [compound 1963], the IC50 under setting [3] is 241 nM.
With `Cc1nc2cc(F)c(CN(C)C)c(C#N)c2c(=O)n1CCOc1ccc(Cl)cc1-c1ccnc2c(C(=O)O)csc12` [compound 311], the IC50 by setting is: under setting [1], 50 to 1000 nM; under setting [2], 55.5 nM.
For `Cc1nc2cnc(C3CC3)c(C#N)c2c(=O)n1CCOc1ccc(Cl)cc1Sc1nc(C(=O)O)cs1` [compound 922], the IC50 runs as follows: under setting [1], 50 to 1000 nM; under setting [2], 89.4 nM.
As to `Cc1nc2cc(C(F)(F)F)c(N3CC4(C3)CN(C3CC3)C4)c(C#N)c2c(=O)n1CCOc1ccc(Cl)cc1-c1ccnc2ccsc12` [compound 2015], the IC50 under setting [3] is 51.1 nM.
As to `Cc1nc2c(N3CCN(C4(C(F)F)COC4)CC3)ncc(C#N)c2c(=O)n1CCOc1ccc(Cl)cc1-c1ccnc2c(C(=O)O)csc12` [compound 1397], the IC50 under setting [3] is 14.7 nM.
Take `Cc1nc2c(N(C)C3CCN(CC(F)(F)F)CC3)ncc(C#N)c2c(=O)n1CCOc1ccc(Cl)cc1-c1ccnc2c(C(=O)O)csc12` [compound 861]: the IC50 is, setting by setting: under setting [1], less than 50 nM; under setting [2], 24.6 nM.
Regarding `Cc1cc(-c2cc(Cl)ccc2OCCn2c(C)nc3ccc(CN4CCN(C)CC4)c(C#N)c3c2=O)c2scc(C(=O)O)c2n1` [compound 647], the IC50 runs as follows: under setting [1], less than 50 nM; under setting [2], 19.8 nM.
In the case of `Cc1nc2cnc(C3=CCN(CC(F)(F)F)CC3)c(C#N)c2c(=O)n1CCOc1ccc(Cl)cc1-c1ccnc2c(C(=O)O)csc12` [compound 889], the IC50 was less than 50 nM under setting [1] and 12.4 nM under setting [2].
On to `Cc1nc2cnc(N(C)C3CCN(CCC(F)(F)F)CC3)c(C#N)c2c(=O)n1CCOc1ccc(Cl)cc1-c1ccnc2c(C(=O)O)csc12` [compound 1360], for which, under setting [3], the IC50 is 16.8 nM.
With `Cc1nc2cnc(CN)cc2c(=O)n1CCOc1ccc(Cl)cc1-c1cccc(C(=O)O)c1` [compound 1998], the IC50 under setting [3] was 409 nM.
On to `Cc1nc2cnc(N3CCN(C(C)C)CC3)c(C#N)c2c(=O)n1CC#Cc1ccc(Cl)cc1-c1ccnc2c(C(=O)O)csc12` [compound 1637], for which the IC50 under setting [3] was 17.7 nM.
As to `Cc1cc(-c2cc(Cl)ccc2OCCn2c(C)nc3cc(C(F)(F)F)c(-c4ccnc5c4CCN5)c(C#N)c3c2=O)c2scc(C(=O)O)c2n1` [compound 1192], the IC50 is, setting by setting: under setting [1], less than 50 nM; under setting [3], 48.8 nM.
As to `Cc1nc2cnc(N3CCN(CC(C)(C)F)CC3)c(C#N)c2c(=O)n1CCOc1ccc(Cl)cc1-c1ccnc2c(C(=O)O)csc12` [compound 1317], the IC50 under setting [3] was 33.5 nM.
Consider `Cc1nc2ccc(S(C)(=O)=O)c(C#N)c2c(=O)n1CCOc1ccc(Cl)cc1-c1ccnc2c(C(=O)O)csc12` [compound 195], for which the IC50 by setting is: under setting [1], less than 50 nM; under setting [2], 27.4 nM.
In the case of `Cc1nc2cnc(N3CC4(C3)CN(C3C(C)(C)C3(C)C)C4)c(C#N)c2c(=O)n1CCOc1ccc(Cl)cc1-c1ccnc2c(C(=O)O)csc12` [compound 1476], the IC50 under setting [3] was 16.2 nM.
